Earlier results on five compounds are cited in patent publication US20090004290A1, “RED YEAST RICE COMPOUND FOR CANCER CHEMOPREVENTION” (priority 2007, published 2009).

Structures are written as SMILES.

Data set [1] concerns lung cancer.
Data set [2] deals with total, breast, colorectal, or other site-specific cancers. To be noted: 100 mg alternate day, average 10 years of treatment, women.
Data set [3] relates to lung cancer. The following applies: interim analysis of over 3200 participants.
The subject of data set [4] is lung cancer. To be noted: secondary endpoint; follow up of over 1300 participants; selenium supplementation.

For `Cc1c(C)c2c(c(C)c1O)CC[C@@](C)(CCC[C@H](C)CCC[C@H](C)CCCC(C)C)O2` [Alpha-tocopherol], the “mortality due to hemorrhagic stroke” value in the data set with lung cancer [1] (participants that received Alpha-tocopherol) is “higher mortality”. The “decrease incidence of lung cancer” value with lung cancer [1] (participants with highest blood levels vs quartile with lowest levels) is recorded as 19%. `CC(=O)Oc1ccccc1C(=O)O` [aspirin, acetylsalicylic acid]: in data set [2], the “risk of total, breast, colorectal, or other site-specific cancers” value is recorded as “does not lower risk”.

Regarding `[Cu]` [copper, Copper], in the data set with lung cancer [3], the “trend of lung cancer with supplementation / dietary intake” value is “protective trend”. On to `[Se]` [selenium, Selenium], for which, in the data set with lung cancer [4], the “hazard ratio (lung cancer)” value is given as 0.56. Moreover, in the data set on lung cancer [3], the “trend of lung cancer with supplementation / dietary intake” value is given as “significant inverse trend”.

Take `[Zn]` [zinc, Zinc]: the “trend of lung cancer with supplementation / dietary intake” value in the data set with lung cancer [3] is recorded as “significant chemoprotective trend”.
